Experimental data as given in US10160747B2, “Compounds and methods for kinase modulation, and indications therefor” (Plexxikon Inc., priority 2016, dated 2018).
Residue numbers refer to the chain shown, from its start.

What was measured:
[1] = biological target: T1, BaF3-FLT3-ITD-F691L (Homo sapiens, UniProt P36888, F691L, cells depend on it, form not given); test: Cell Assay CS0047: BaF3-FLT3-ITD-F691L CTB; type: cell-based, murine; conditions: three day growth assay in the absence of IL3; read-out: Cell Assay: CS0047: BaF3-FLT3-ITD-F691L CTB:IC50
T1 sequence (P36888 with tags, fused parts or gaps INS600HVDFREYEYD/F691L): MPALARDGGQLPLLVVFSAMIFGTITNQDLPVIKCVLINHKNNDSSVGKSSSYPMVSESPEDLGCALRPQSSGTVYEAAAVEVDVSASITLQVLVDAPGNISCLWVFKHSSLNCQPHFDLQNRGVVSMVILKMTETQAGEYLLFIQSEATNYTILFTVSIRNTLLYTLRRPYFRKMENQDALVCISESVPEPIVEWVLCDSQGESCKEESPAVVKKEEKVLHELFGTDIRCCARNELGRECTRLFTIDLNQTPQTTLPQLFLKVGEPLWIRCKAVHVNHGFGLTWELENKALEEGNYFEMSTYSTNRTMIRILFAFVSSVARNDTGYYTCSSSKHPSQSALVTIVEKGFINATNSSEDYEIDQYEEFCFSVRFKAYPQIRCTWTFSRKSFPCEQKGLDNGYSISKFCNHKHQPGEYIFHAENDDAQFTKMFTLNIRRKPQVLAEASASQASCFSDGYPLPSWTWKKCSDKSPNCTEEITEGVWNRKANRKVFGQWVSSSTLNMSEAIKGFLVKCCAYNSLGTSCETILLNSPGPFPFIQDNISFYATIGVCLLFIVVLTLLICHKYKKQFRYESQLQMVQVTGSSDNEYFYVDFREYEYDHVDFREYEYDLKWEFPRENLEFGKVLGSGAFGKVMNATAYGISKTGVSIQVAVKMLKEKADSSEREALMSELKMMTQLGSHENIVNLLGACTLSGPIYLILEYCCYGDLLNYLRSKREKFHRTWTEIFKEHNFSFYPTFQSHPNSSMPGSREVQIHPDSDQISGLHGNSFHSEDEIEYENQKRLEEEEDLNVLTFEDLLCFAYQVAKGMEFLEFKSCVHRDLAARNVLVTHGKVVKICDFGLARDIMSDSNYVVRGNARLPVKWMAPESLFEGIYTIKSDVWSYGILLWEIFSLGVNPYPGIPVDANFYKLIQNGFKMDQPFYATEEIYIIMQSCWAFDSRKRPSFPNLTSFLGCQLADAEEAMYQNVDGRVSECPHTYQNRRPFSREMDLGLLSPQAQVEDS
From the text: (§1) The BaF3 assays as developed used to generate the data in Tables 7 and 8 are identical and differ only in minor details in regards to vector design, not biological function. Both introduce the FLT3 gene with MV4-11 based ITD duplications and resistance mutations from an exogenous promoter (MSCV and CMV respectively) in the exact same cell line.
(§2) As a result of the expressed FLT3 protein, the IL3 factor dependent BaF3 cell clones become IL3-factor independent.
(§3) The compounds in Tables 7 and 8 were tested in an identical fashion by incubating such clones in with increasing concentrations. Inhibition of the FLT3 activity by an inhibitor results in factor dependency, which in the absence of IL3 results in cell death in the three day growth assays.

[2] = biological target: T2, BaF3-FLT3-ITD-D835V (Homo sapiens, UniProt P36888, D835V, cells depend on it, form not given); test: Cell Assay CS0048: BaF3-FLT3-ITD-D835V CTB; type: cell-based, murine; conditions: three day growth assay in the absence of IL3; read-out: Cell Assay: CS0048: BaF3-FLT3-ITD-D835V CTB:IC50
T2 sequence (P36888 with tags, fused parts or gaps INS600HVDFREYEYD/D835V): T1 sequence (P36888 with tags, fused parts or gaps INS600HVDFREYEYD/F691L) with L701F, D845V
From the text: as §1, §2, §3

[3] = biological target: T3, FLT3-ITD (Homo sapiens, UniProt P36888); test: FLT3-ITD recombinant enzyme kinase assay (AlphaScreen); type: biochemical; conditions: 8 pt; read-out: FLT3_ITD 8 pt: IC50
T3 sequence (P36888 1-993): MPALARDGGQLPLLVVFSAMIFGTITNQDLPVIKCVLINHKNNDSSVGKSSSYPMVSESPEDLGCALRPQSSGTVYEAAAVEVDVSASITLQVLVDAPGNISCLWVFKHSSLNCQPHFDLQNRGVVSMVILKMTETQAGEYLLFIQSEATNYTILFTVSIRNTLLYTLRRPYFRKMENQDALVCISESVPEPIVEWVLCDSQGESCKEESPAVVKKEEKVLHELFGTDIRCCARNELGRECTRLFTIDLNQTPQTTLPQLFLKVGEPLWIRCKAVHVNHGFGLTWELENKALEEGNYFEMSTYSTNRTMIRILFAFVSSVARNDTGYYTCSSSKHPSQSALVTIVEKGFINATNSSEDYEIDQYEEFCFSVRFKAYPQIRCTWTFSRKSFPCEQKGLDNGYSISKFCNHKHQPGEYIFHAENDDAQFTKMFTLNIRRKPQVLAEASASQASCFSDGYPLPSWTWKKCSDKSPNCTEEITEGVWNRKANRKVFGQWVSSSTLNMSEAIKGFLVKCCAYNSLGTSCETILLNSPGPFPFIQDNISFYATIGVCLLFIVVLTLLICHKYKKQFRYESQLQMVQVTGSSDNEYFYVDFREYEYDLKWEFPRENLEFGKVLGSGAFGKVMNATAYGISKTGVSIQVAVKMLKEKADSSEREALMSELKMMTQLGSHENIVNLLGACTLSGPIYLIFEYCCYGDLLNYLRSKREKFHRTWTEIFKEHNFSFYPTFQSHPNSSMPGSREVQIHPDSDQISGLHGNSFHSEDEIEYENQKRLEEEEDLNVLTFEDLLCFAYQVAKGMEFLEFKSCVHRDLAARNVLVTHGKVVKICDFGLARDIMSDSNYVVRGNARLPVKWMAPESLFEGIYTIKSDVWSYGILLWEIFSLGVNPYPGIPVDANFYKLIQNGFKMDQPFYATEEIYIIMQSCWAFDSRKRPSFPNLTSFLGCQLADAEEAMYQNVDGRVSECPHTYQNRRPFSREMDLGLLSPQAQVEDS
Protocol: (§4) In order to determine the effect of compounds on FLT3 catalytic activity, kinase assays using recombinant enzymes and AlphaScreen® technology have been established. The catalytic activity of c-kit activity was also measured to determine selectivity of the compounds. When the kinases are catalytically active, they phosphorylate a biotinylated peptide substrate on tyrosine residues. Using AlphaScreen® technology, the ability of the compounds to affect the catalytic activity of the kinases can be measured quantitatively. The peptide substrate is immobilized by the AlphaScreen® Streptavidin Donor beads and, upon phosphorylation by a tyrosine kinase, can bind to AlphaScreen® Anti-Phosphotyrosine (PY20) Acceptor beads. Upon excitation of these beads with laser light at 680 nm, singlet oxygen is produced. This singlet oxygen is rapidly quenched, unless the AlphaScreen® Anti-Phosphotyrosine (PY20) Acceptor beads are in close proximity, in which case a proximity signal can be measured at 580 nm. In the presence of catalytic activity, there is a very strong proximity signal. Selective kinase inhibitors affect a decrease in this proximity signal through a decrease in tyrosine phosphorylation of the peptide substrate.
(§5) The assay was performed as summarized below.
(§6) Poly (Glu4-Tyr) Peptide, biotin conjugate [Biotin-GG(EEEEY)10EE] (SEQ ID NO: 4)
(§7) Final concentration=30 nM
(§8) Adenosine Triphosphate (ATP)
(§9) Final concentration for IC50 determination=10 μM (FLT3-D835Y or FLT3-ITD) or 100 μM (c-KIT)
(§10) AlphaScreen® Phosphotyrosine (PY20) Assay Kit
(§11) Final concentration=10 μg/mL
(§12) Dilute compounds in DMSO to 20× final concentration.
(§13) Add 1 μL of compound to each well of 384 well reaction plate (Perkin Elmer #6005359).
(§14) Mix enzyme and Poly (Glu4-Tyr) Peptide substrate at 1.33× final concentration in assay buffer.
(§15) Mix ATP at 5× final concentration in assay buffer.
(§16) Add 15 μL enzyme/substrate mixture to the reaction plate.
(§17) Add 4 μL of ATP to the reaction plate.
(§18) Mix Streptavidin Donor beads at 6× final concentration in Stop/Detection buffer.
(§19) Add 5 μL Streptavidin Donor beads to the reaction plate. Centrifuge 1 minute, shake to mix, and incubate at room temperature for 20 minutes.
(§20) Mix Anti-Phosphotyrosine (PY20) Acceptor beads at 6× final concentration in Stop/Detection buffer.
(§21) Add 5 μL Anti-Phosphotyrosine (PY20) beads to the reaction plate.
(§22) Centrifuge 1 minute, shake to mix, and incubate at room temperature for 60 minutes.
(§23) Read plate on Wallac EnVision™ 2103 Multilabel Reader.

[4] = biological target: T4, FLT3-D835Y (Homo sapiens, UniProt P36888, D835Y); test: FLT3-D835Y recombinant enzyme kinase assay (AlphaScreen); type: biochemical; conditions: 8 pt, GMean
T4 construct: purchased Invitrogen PV3967
T4 sequence (P36888 27-993 D835Y): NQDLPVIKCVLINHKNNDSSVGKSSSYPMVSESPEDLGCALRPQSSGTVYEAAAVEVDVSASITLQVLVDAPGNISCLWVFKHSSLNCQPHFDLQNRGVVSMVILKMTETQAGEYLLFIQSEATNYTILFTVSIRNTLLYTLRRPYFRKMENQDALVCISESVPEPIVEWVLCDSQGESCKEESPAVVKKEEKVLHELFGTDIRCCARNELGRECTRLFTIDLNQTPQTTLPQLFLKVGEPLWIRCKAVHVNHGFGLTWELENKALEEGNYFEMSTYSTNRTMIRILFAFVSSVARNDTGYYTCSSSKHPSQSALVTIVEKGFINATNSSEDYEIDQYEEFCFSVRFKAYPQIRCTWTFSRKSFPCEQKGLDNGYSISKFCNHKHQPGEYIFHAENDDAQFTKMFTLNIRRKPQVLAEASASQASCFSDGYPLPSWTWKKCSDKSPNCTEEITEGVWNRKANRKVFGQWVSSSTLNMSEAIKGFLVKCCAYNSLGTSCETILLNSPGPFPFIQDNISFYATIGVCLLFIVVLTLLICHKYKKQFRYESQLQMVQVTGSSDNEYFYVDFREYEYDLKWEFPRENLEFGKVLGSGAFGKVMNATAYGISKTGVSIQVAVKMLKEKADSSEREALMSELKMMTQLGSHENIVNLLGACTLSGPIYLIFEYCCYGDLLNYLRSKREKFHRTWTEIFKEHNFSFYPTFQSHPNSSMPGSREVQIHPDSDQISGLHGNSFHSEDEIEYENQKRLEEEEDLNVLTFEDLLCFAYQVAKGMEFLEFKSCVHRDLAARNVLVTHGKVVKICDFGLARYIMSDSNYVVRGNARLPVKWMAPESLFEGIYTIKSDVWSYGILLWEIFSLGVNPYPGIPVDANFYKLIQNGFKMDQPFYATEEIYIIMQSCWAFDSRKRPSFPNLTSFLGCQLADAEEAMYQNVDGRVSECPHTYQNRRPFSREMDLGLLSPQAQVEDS
Protocol: as §4, §5, §6, §7, §8, §9, §10, §11, §12, §13, §14, §15, §16, §17, §18, §19, §20, §21, §22, §23

[5] = biological target: T5, c-KIT (Homo sapiens, UniProt P10721); test: c-KIT recombinant enzyme kinase assay (AlphaScreen); type: biochemical; conditions: 100 ATP, 8 pt
T5 construct: purchased Millipore 14-559K
T5 sequence (P10721 26-976): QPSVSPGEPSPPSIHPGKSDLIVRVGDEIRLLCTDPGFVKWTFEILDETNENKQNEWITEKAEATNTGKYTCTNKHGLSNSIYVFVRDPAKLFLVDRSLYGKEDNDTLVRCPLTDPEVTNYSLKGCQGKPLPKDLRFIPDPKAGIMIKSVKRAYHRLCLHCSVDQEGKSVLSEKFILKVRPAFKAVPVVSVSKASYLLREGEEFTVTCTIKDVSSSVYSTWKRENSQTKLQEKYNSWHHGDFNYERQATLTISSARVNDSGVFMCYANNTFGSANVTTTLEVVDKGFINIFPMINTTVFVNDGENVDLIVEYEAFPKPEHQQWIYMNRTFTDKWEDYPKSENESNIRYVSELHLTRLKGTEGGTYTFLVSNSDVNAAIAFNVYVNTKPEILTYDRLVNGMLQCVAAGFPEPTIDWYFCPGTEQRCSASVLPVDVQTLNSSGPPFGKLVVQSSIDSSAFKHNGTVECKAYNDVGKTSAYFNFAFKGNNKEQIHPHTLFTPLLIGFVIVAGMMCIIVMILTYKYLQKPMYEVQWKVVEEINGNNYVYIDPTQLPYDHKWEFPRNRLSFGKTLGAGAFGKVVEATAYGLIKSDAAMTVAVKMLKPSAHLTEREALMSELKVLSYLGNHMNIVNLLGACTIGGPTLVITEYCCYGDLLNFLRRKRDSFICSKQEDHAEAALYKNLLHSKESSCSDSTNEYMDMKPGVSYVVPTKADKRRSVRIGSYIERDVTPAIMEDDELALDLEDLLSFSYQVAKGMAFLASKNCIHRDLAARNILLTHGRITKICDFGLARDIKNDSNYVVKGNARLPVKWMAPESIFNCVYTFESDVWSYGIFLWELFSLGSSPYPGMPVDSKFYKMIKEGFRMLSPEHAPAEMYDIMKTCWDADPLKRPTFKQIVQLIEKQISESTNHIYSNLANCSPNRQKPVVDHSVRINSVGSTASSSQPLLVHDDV
Protocol: as §4, §5, §6, §7, §8, §9, §10, §11, §12, §13, §14, §15, §16, §17, §18, §19, §20, §21, §22, §23

| SMILES | GI50 [1] [nM] | GI50 [2] [nM] | IC50 [3] [nM] | IC50 [4] [nM] | IC50 [5] [nM] |
| --- | --- | --- | --- | --- | --- |
| CC(C)(C)c1cc(NC(=O)Nc2ccc(-c3cnc(NC4CCOCC4)nc3)cn2)no1 | 110 | 673 | – | – | – |
| CC(C)(C)c1cc(NC(=O)Nc2ccc(-c3cnc(NC4CC4)nc3)cn2)no1 | 77.8 | 585 | – | – | – |
| COc1ncc(NC(=O)Cc2ccc(-c3cnc(Nc4cn[nH]c4)nc3)c(F)c2)cc1C(F)(F)F [Compound P-0028, 2-[3-fluoro-4-[2-(1H-pyrazol-4-ylamino)pyrimidin-5-yl]phenyl]-N-[6-methoxy-5-(trifluoromethyl)-3-pyridyl]acetamide] | – | – | 0.1 to 10000 | 0.1 to 10000 | 0.1 to 10000 |
| O=C(Cc1ccc(-c2cnc3[nH]c(C4CC4)cc3c2)cc1F)Nc1cncc(C(F)(F)F)c1 [Compound P-0080, 2-(4-(2-cyclopropyl-1H-pyrrolo[2,3-b]pyridin-5-yl)-2-fluorophenyl)-N-(5-(trifluoromethyl)pyridin-3-yl)acetamide] | – | – | 0.1 to 10000 | 0.1 to 10000 | 0.1 to 10000 |

The remaining compounds from weak to strong by GI50 [1], led by results:

| GI50 [1] [nM] | GI50 [2] [nM] | IC50 [3] [nM] | IC50 [4] [nM] | IC50 [5] [nM] | SMILES |
| --- | --- | --- | --- | --- | --- |
| 73.9 | 145 | – | – | – | CC(C)(c1cc(NC(=O)Cc2ccc(-c3ccc(NCCN4CCOCC4)nc3)cc2)no1)C(F)(F)F |
| 45.4 | 94.2 | – | – | – | CCNc1ccc(-c2ccc(CC(=O)Nc3cc(C(C)(C)C)on3)cc2)cn1 |
| 43.2 | 92 | – | – | – | CNc1ccc(-c2ccc(CC(=O)Nc3cc(C(C)(C)C)on3)cc2)cn1 |
